According to patent publication US20250163051A1, “PYRIMIDO AROMATIC RING COMPOUND AND USE THEREOF IN DRUG” (SUNSHINE LAKE PHARMA CO., LTD., priority 2022, published 2025):

How the values were obtained:
hTLR8 = biological target: T1, hTLR8 (Homo sapiens, UniProt Q9NR97); experiment: Agonistic activity on human TLR8 in HEK-Blue hTLR8 cells (QUANTI-Blue); assay type: cell-based; conditions: 24 h incubation, OD650, read-out: hTLR 8 EC50
T1 construct: expressed in transfected cells; host or cells: HEK-Blue hTLR8 cells
T1 sequence (Q9NR97 27-1041): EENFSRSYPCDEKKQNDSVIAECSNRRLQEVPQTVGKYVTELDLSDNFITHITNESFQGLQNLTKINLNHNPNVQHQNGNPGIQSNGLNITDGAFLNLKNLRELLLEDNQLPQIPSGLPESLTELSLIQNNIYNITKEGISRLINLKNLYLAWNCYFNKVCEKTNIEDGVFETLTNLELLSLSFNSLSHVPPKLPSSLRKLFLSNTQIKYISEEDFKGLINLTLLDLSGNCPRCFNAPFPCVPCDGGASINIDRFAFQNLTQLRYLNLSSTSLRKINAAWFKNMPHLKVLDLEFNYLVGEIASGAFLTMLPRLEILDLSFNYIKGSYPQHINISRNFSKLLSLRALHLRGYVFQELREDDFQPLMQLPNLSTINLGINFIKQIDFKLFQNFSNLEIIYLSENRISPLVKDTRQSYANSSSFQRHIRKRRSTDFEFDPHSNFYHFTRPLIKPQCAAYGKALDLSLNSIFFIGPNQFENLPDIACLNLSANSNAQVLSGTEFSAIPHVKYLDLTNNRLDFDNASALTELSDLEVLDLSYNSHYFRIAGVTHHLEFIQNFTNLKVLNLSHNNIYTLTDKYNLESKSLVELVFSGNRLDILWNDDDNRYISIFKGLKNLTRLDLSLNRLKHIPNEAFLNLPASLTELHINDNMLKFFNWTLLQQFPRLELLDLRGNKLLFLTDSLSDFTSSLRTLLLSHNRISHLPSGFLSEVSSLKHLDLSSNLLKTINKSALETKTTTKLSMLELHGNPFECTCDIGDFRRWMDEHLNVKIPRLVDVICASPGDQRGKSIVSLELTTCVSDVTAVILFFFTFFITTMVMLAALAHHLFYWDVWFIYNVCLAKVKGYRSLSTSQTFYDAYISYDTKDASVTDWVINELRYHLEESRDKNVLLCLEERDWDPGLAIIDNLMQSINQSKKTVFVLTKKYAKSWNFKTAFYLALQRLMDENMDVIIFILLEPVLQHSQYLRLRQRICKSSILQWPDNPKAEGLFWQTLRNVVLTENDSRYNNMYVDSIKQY

hTLR7 = biological target: T2, hTLR7 (Homo sapiens, UniProt Q9NYK1); experiment: Agonistic activity on human TLR7 in HEK-Blue hTLR7 cells (QUANTI-Blue); assay type: cell-based; conditions: 24 h incubation, OD650, read-out: hTLR 7 EC50
T2 construct: expressed in transfected cells; host or cells: HEK-Blue hTLR7 cells
T2 sequence (Q9NYK1 27-1049): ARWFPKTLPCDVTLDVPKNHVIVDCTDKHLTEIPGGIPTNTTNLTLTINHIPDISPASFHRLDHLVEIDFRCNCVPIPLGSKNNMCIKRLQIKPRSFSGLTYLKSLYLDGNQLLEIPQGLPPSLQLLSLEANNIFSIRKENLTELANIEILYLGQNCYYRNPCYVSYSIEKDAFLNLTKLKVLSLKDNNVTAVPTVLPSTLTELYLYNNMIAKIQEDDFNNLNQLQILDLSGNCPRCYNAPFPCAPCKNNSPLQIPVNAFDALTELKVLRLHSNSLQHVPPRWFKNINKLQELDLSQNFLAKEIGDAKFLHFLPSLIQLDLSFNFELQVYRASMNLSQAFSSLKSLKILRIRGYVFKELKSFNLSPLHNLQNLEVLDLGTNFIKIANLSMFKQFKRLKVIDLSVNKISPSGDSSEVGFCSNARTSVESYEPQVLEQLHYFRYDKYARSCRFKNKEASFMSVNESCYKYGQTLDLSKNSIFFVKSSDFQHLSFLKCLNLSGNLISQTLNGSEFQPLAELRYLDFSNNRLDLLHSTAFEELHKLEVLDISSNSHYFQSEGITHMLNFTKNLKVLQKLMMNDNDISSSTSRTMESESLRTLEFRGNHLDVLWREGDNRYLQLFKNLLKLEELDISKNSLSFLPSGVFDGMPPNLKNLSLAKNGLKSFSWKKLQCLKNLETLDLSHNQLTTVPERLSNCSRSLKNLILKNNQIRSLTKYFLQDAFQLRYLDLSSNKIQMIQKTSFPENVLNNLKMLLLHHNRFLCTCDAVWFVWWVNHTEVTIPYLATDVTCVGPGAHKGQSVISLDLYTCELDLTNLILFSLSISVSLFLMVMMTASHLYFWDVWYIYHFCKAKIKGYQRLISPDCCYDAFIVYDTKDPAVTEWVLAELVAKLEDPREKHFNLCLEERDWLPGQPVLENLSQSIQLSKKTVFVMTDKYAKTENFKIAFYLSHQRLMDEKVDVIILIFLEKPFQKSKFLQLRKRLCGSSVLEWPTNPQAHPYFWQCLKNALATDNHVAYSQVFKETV

[1] = Cell toxicity (Celltiter-Glo) in HEK-Blue hTLR8 cells; conditions: human

EC50 (hTLR8) [µM]	EC50 (hTLR7) [µM]	Structure (SMILES)	CC50 at 24 h [1] [µM]
0.03	18.4	CCCC[C@](C)(CO)Nc1nc(N)nc2cc(-c3cc(=O)[nH]cc3CSC)cnc12 [Example 52, (R)-4-(2-Amino-4-((1-hydroxy-2-methylhexan-2-yl)amino)pyrido[3,2-d]pyrimidin-7-yl)-5-((methylthio)methyl)pyridin-2(1H)-one]	> 100
1.86	> 100	CCCC[C@](C)(CO)Nc1nc(N)nc2cc(-c3cc(=O)[nH]cc3CNCCOC)ccc12 [Example 57, (R)-4-(2-Amino-4-((1-hydroxy-2-methylhexan-2-yl)amino)quinazolin-7-yl)-5-(((2-methoxyethyl)amino)methyl)pyridin-2(1H)-one]	> 100
0.418	> 100	CCCC[C@](C)(CO)Nc1nc(N)nc2cc(-c3cc(=O)n(C)cc3CNCCOC)ccc12 [Example 61, (R)-4-(2-Amino-4-((1-hydroxy-2-methylhexan-2-yl)amino)quinazolin-7-yl)-5-(((2-methoxyethyl)amino)methyl)-1-methylpyridin-2(1H)-one]	> 100
0.212	> 100	CCCC[C@](C)(CO)Nc1nc(N)nc2cc(-c3cc(=S)[nH]cc3CN(C)CCOC)ccc12 [Example 65, (R)-4-(2-Amino-4-((1-hydroxy-2-methylhexan-2-yl)amino)quinazolin-7-yl)-5-(((2-methoxyethyl)(methyl)amino)methyl)pyridine-2(1H)-thione]	> 100
0.183	> 100	CCCC[C@](C)(CO)Nc1nc(N)nc2cc(-c3cc(=S)[nH]cc3CN(C)CCOC)cnc12 [Example 66, (R)-4-(2-Amino-4-((1-hydroxy-2-methylhexan-2-yl)amino)pyrido[3,2-d]pyrimidin-7-yl)-5-(((2-methoxyethyl)(methyl)amino)methyl)pyridine-2(1H)-thione]	> 100

The remaining lines, values behind:

Structure (SMILES)	EC50 (hTLR8) [µM]	EC50 (hTLR7) [µM]	CC50 at 24 h [1] [µM]
C=CCC(=O)N(C)Cc1c[nH]c(=O)cc1-c1cnc2c(N[C@@](C)(CO)CCCC)nc(N)nc2c1 [Example 40, (R)—N-((4-(2-Amino-4-((1-hydroxy-2-methylhexan-2-yl)amino)pyrido[3,2-d]pyrimidin-7-yl)-6-oxo-1,6-dihydropyridin-3-yl)methyl)-N-methylbut-3-enamide]	1.52	> 100	> 100
C=CCCOCc1c[nH]c(=O)cc1-c1cnc2c(N[C@@](C)(CO)CCCC)nc(N)nc2c1 [Example 41, (R)-4-(2-Amino-4-((1-hydroxy-2-methylhexan-2-yl)amino)pyrido[3,2-d]pyrimidin-7-yl)-5-((but-3-en-1-yloxy)methyl)pyridin-2(1H)-one]	0.354	29.9	> 100
C=CCCN(C)Cc1c[nH]c(=O)cc1-c1cnc2c(N[C@@H](CO)CCCC)nc(N)nc2c1 [Example 42, (R)-4-(2-Amino-4-((1-hydroxyhexan-2-yl)amino)pyrido[3,2-d]pyrimidin-7-yl)-5-((but-3-en-1-yl (methyl)amino)methyl)pyridin-2(1H)-one]	0.595	> 100	> 100
C=CCCN(C)Cc1c[nH]c(=O)cc1-c1cnc2c(N[C@](C)(CCCC)CNC(=O)c3cnn(C)c3)nc(N)nc2c1 [Example 44, (R)—N-(2-((2-Amino-7-(5-((but-3-en-1-yl(methyl)amino)methyl)-2-oxo-1,2-dihydropyridin-4-yl)pyrido[3,2-d]pyrimidin-4-yl)amino)-2-methylhexyl)-1-methyl-1H-pyrazole-4-carboxamide]	0.166	> 100	> 100
C=CCCN(C)Cc1cn(C)c(=O)cc1-c1cnc2c(N[C@](C)(CCCC)CNC(=O)c3cnn(C)c3)nc(N)nc2c1 [Example 45]	0.097	> 100	> 100
C=CCCN(C)Cc1cn(C)c(=O)cc1-c1ccc2c(N[C@](C)(CCCC)CNC(=O)c3cnn(C)c3)nc(N)nc2c1 [Example 46]	0.569	> 100	> 100
CCCCNCc1c[nH]c(=O)cc1-c1ccc2c(N[C@@](C)(CO)CCCC)nc(N)nc2c1 [Example 58, (R)-4-(2-Amino-4-((1-hydroxy-2-methylhexan-2-yl)amino)quinazolin-7-yl)-5-((butylamino)methyl)pyridin-2(1H)-one]	0.918	> 100	> 100
CCCC[C@](C)(CO)Nc1nc(N)nc2cc(-c3cc(=O)[nH]cc3CN(C)CCO)ccc12 [Example 60, (R)-4-(2-Amino-4-((1-hydroxy-2-methylhexan-2-yl)amino)quinazolin-7-yl)-5-(((2-hydroxyethyl)(methyl)amino)methyl)pyridin-2(1H)-one]	0.292	> 100	> 100
CCCCNCc1cn(C)c(=O)cc1-c1ccc2c(N[C@@](C)(CO)CCCC)nc(N)nc2c1 [Example 62, (R)-4-(2-Amino-4-((1-hydroxy-2-methylhexan-2-yl)amino)quinazolin-7-yl)-5-((butylamino)methyl)-1-methylpyridin-2(1H)-one]	0.198	> 100	> 100
CCCC[C@](C)(CO)Nc1nc(N)nc2cc(-c3cc(=O)[nH]cc3CN(C)C)ccc12 [Example 67, (R)-4-(2-Amino-4-((1-hydroxy-2-methylhexan-2-yl)amino)quinazolin-7-yl)-5-((dimethylamino)methyl)pyridin-2(1H)-one]	0.056	> 100	> 100
CCCC[C@](C)(CO)Nc1nc(N)nc2cc(-c3cc(=O)[nH]cc3COC)ccc12 [Example 68, (R)-4-(2-Amino-4-((1-hydroxy-2-methylhexan-2-yl)amino)quinazolin-7-yl)-5-(methoxymethyl) pyridin-2(1H)-one]	0.042	14.2	> 100
